Read-outs that look alike come from different tables or passages of the source.
Columns and labels:
[1] = tested on: K562 (human chronic myelogenous leukemia) cells; test: Cell Titer Glo 2.0 cell viability assay; format: cell-based; settings: Homo sapiens, K562, 72 h, K562 cells, 72 hours, Cell Titer Glo 2.0; read-out: K562 GI50
[2] = tested on: SMN2 mRNA; test: RT-qPCR splicing assay, SMN2 canonical junction (CJ) mRNA; format: cell-based, human; settings: Homo sapiens; canonical junction qPCR panel, Table 5; read-out: SMN2 (decrease in CJ mRNA levels, IC50)
How it was run: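 Canonical exon-exon junction transcript levels measured by one-step RT-qPCR of cell lysates, normalized to a housekeeping gene (GAPDH, GUSB or PPIA). Cells used were A673 or K562, exposed for 24 h to compound in 11-point, 3-fold series from 10 uM, with final DMSO at or below 0.25%.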

[3] = tested on: Target C; test: HiBiT protein abundance assay, Target C (Promega Nano-Glo HiBiT Lytic Detection System, knock-in K562 cell line); format: cell-based, human; settings: Homo sapiens, K562, 24 h, HiBiT K562 cell line, 24 hours, top dose 10 μM; read-out: Effect on protein abundance, Target C (IC50 category)
How it was run: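 Knock-in K562 cells carrying HiBiT-tagged Target C, 10,000 per well, treated 24 h at 37 °C with 10-point threefold dilutions (top 10 μM final, ≤0.25% DMSO). Lytic HiBiT luminescence read; response normalised to unmodified K562 and DMSO controls, four-parameter fit interpolated at 50% for IC50.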

[4] = tested on: HTT mRNA; test: RT-qPCR splicing assay, HTT canonical junction (CJ) and alternative junction (AJ) mRNA; format: cell-based, human; settings: Homo sapiens; for AC50: increase in HTT alternative junction (AJ) mRNA, read-out: HTT AJ AC50
How it was run: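 24 h treatment, 37 °C/5% CO2; A673 or K562; 11-pt 3-fold series, top 10 uM final; DMSO ≤0.25%. Cell lysis with DNase I, then 1-step RT-qPCR. Housekeeping normalization: PPIA (A673), GAPDH or GUSB (K562).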

[5] = decrease in HTT canonical junction (CJ) mRNA, RT-qPCR, read-out: HTT CJ IC50
[6] = canonical junction qPCR panel, Table 5, read-out: HTT (decrease in CJ mRNA levels, IC50)

Row | GI50 [1] [µM] | IC50 [2] [µM] | IC50 [3] [µM] | IC50 [4, 5] [µM] | IC50 [4, 6] [µM] | Compound | AC50 ([4]; RT-qPCR) [µM]
1 | 0.1 to 1 | < 0.1 | 1 to 10 | 1 to 10 | 1 to 10 | Cc1c(O)c(-c2ncc3c(=O)n([C@H]4C[C@H](N)C4)ccc3n2)cc2cn(C)nc12 [Compound 1432, 6-((1r,3r)-3-aminocyclobutyl)-2-(6-hydroxy-2,7-dimethyl-2H-indazol-5-yl)pyrido[4,3-d]pyrimidin-5(6H)-one] | 1 to 10
2 | 0.1 to 1 | < 0.1 | 0.1 to 1 | 0.1 to 1 | 0.1 to 1 | Cn1cc2cc(-c3ccc4c(=O)n([C@@H]5CCNC5)ccc4n3)c(O)c(F)c2n1 [Compound 1452, 2-(7-fluoro-6-hydroxy-2-methyl-indazol-5-yl)-6-[(3R)-pyrrolidin-3-yl]-1,6-naphthyridin-5-one] | 0.1 to 1

Source: US20250332173A1, “COMPOUNDS AND METHODS FOR MODULATING NUCLEIC ACID SPLICING” (REMIX THERAPEUTICS INC., priority 2021, published 2025)
